Measurements published in paper PMC11796317, “Fragment Discovery by X‐Ray Crystallographic Screening Targeting the CTP Binding Site of Pseudomonas Aeruginosa IspD” (Angewandte Chemie (International Ed. in English), 2025).

T1: PaIspD (Pseudomonas aeruginosa, UniProt P57707)
T1 construct: His6 (N, cleaved yes); made in house; host or cells: Escherichia coli BL21 (DE3), pET28
T1 sequence (P57707 1-234): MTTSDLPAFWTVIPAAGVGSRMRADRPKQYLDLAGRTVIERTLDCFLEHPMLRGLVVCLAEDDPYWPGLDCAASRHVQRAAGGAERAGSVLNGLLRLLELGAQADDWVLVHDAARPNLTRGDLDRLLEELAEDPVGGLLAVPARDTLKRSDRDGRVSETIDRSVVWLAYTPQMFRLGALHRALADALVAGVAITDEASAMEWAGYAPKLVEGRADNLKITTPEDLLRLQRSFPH

B1: PaIspD (Pseudomonas aeruginosa PAO1) (protein)
chain: T1 sequence (P57707 1-234)
notes: His6 (N, cleaved yes); made in house; host or cells: Escherichia coli BL21 (DE3), pET28

Legend:
PaIspD [1] = biological target: T1, PaIspD; test: Determination of enzyme kinetics (Michaelis constants of substrates, LC-MS); type: biochemical; conditions: substrate of PaIspD; 50 nM PaIspD, 37 °C, 40 minutes
Experimental: (§1) Determination of enzyme kinetics
(§2) Table S1. Michaelis constants for MEP and CTP of PaIspD.
(§3) Substrate Km (mM) Vmax (AU/min-1)
(§4) Determination of enzyme kinetics. The assay was conducted as published before. To determine the Km values for CTP and MEP with PaIspD, substrate concentrations (0.016–2 mM) were prepared in a 96-well plate. Each well contained 100 μL of reaction mix with Buffer A (100 mM Tris-HCl pH 7.6, 1 mM DTT, 1 mM MgCl2) and 50 nM PaIspD. Serial dilutions of CTP or MEP were performed, and reactions were initiated by adding Buffer B (100 mM Tris-HCl pH 7.6, 1 mM DTT, 1 mM MEP or CTP). Plates were incubated at 37 °C for 40 minutes, denatured at 95 °C for 5 minutes, and centrifuged at 4000 rpm at 4 °C. Supernatants (10 μL) were mixed with an 190 μL ice-cold 3:1:1 ACN, isopropanol, water mixture containing 100 nM 4-methyl-1-oxo-1-(p-tolylamino)pentane-2-sulfonic acid, adenylyl-imidodiphosphate and adenosine-5′- [(α,β)-methyleno]triphosphate as internal standard. After centrifugation at 4000 rpm at 4 °C for 5 min, a 50 μL aliquot was transferred to an LC-MS plate for analysis. Peak areas were used to calculate Michaelis–Menten kinetics using GraphPad Prism v9. Measurements were done in duplicates and repeated in two independent experiments.
Figure S1: Kinetic parameters of PaIspD substrates (MEP, left and CTP, right). Each data point reflects the mean ± SD obtained from two-independent […]

PaIspD [2] = biological target: T1, PaIspD; test: Fluorescence quenching (PaIspD); type: binding
Experimental: Fluorescence quenching (PaIspD)
Quenching is expressed as (I0 – I) / I0 with I0 the intensity (at 332 nm) of fluorescence in absence of compound and I the intensity of fluorescence upon addition of compound. Inset, fluorescence emission spectra in the presence of increasing concentrations of compound. The concentration of PaIspD was kept at 2 µM during the assay, the compounds were tested in concentration ranges given below. The excitation wavelength was set at 286 nm, emission spectra were recorded between 300 nm and 380 nm. The data were fitted using Qtiplot software (qtiplot.com). A least square fit to a simple bimolecular equilibrium was used to estimate the Kd values. Each measurement was reproduced two times. The measurements were carried out in the following buffer: 50 mM Tris-Cl pH = 8, 50 mM NaCl, 1mM MgCl2.
Table S1. Concentration ranges used to determine Kd during the Fluorescence quenching assay.

PaIspD [3] = biological target: T1, PaIspD; test: Microscale thermophoresis (MST) with dyed PaIspD; type: binding
Experimental: The microscale thermophoresis (MST) (Serial no. 201709-BR-N024, Monolith NT.115 Micro Scale Thermophoresis, NanoTemper Technologies GmbH.) was performed using dyed PaIspD, labeled according to the standard protocol from the manufacturer NanoTemper Technologies GmbH Protein Labeling Kit Red-NHS, 2nd Generation. A 2 mM ligand solution containing 10% DMSO was prepared (Solution I). A 200 µl solution of 10% DMSO containing buffer solution was prepared (Solution II). The buffer used was HEPES (50 mM), MgCl2 (5 mM) and Tween (0.05%) at pH 7.6 for all compounds. To PCR tubes 2-16, 10 µl of solution II was added. To tube 1, 20 µl of solution I was added. 10 µl from tube 1 was add to tube 2 and mixed. This was continued until tube 16. To each tube, 10 µL of the protein dye mixture was added and mixed. The mixture was allowed to incubate at room temperature for 5 minutes. Non-hydrophobic capillary tubes were used for measurement. Each sample was measured and analyzed in MO Control version 1.6.

PaIspD [4] = biological target: T1, PaIspD; test: 1H-STD NMR and competition STD NMR with CTP; type: binding
Source text: To further validate the occurrence of interactions taking place between the fragment and PaIspD, we referred to ^1H‐STD NMR spectroscopy, a commonly used technique for this purpose.[10, 11] We conducted this experiment in a HEPES buffer in D2O with a 100‐fold excess of 2 compared to PaIspD. In the corresponding difference spectrum, we identified all proton signals previously observed in the ^1H NMR spectrum of 2 (see Figure S2 and S3 in the Supporting Information). […] We further noted the magnitude of amplification of the signals as the efficiency of saturation transfer scales with distance, enabling us to gain an idea about the proximity of each proton to the protein surface.[12] Among all protons, those in position iii (Figure 4) clearly received a surplus in saturation transfer relative to the other ones, whereas the protons positioned on the pyridyl ring (i, Figure 4) and the protons in position ii (Figure 4) received both less amplification with the latter receiving the least amount (Figure 4). […]
The 1H-STD-NMR experiment was recorded at 25 °C with 512 scans on a Bruker Avance Neo 500 MHz spectrometer with prodigy cryoprobe system. […]

[5] = substrate: C[C@](O)(CO)[C@H](O)COP(=O)(O)O; test: Determination of enzyme kinetics (Michaelis constants of substrates, LC-MS); type: biochemical, Pseudomonas aeruginosa; conditions: other: substrate of PaIspD, 50 nM PaIspD, 37 °C, 40 minutes, pH 7.6
Experimental: as §1, §2, §3, §4
Figure S1: Kinetic parameters of PaIspD substrates (MEP, left and CTP, right). […]

[6] = -log KD, supplement sheet, CORRECTED VALUES
[7] = -log KD, supplement sheet, PUBLISHED VALUES
[8] = kd (M), supplement sheet, CORRECTED VALUES
[9] = kd (µM), supplement sheet, CORRECTED VALUES, MST Kd
[10] = supplement sheet, CORRECTED VALUES
[11] = supplement sheet, PUBLISHED VALUES
[12] = MST Kd, n=2, mean±SD, HEPES 50 mM, MgCl2 5 mM, Tween 0.05%, pH 7.6

| Molecule | Km (PaIspD [1]) [µM] | Vmax (PaIspD [1]) [AU/min-1] | Kd (PaIspD [2]) [µM] | Kd (PaIspD [3]; [6]) [M] | Kd (PaIspD [3]; [7]) [M] | Kd (PaIspD [3]; [8]) [M] | Kd (PaIspD [3]; [9]) [M] | LE (PaIspD [3]; [10]) | LLE (PaIspD [3]; [11]) | Competition STD NMR with CTP (PaIspD [4]; 1 mM 2, 10 mM CTP, 10 µM PaIspD) | 1H-STD NMR interaction with PaIspD (PaIspD [4]; HEPES buffer in D2O, 100-fold excess of 2 compared to PaIspD) | Kd (PaIspD [3]; [12]) [M] | Km [5] [µM] |
| --- | --- | --- | --- | --- | --- | --- | --- | --- | --- | --- | --- | --- | --- |
| Nc1ccn([C@@H]2O[C@H](COP(=O)(O)OP(=O)(O)OP(=O)(O)O)[C@@H](O)[C@H]2O)c(=O)n1 [CTP] | 200 ± 100 | 0.30 ± 0.01 |  |  |  |  |  |  |  |  |  |  |  |
| CN1Cc2cccnc2C1=O [Compound 2] |  |  | 977 ± 59 | 0.000939 | 0.000939 | 0.000939 | 0.000939 | 0.377 | -1.358 | STD signals of 2 disappeared | came into close proximity of the protein |  |  |
| CN1CCC(N2Cc3cccnc3C2=O)CC1 [Compound 3] |  |  | 879 ± 64 | 0.000186 | 0.000186 | 0.000186 | 0.000186 | 0.3006 | -0.7773 |  |  | 0.000186 ± 7e-06 |  |
| O=C1c2ncccc2CN1Cc1ccccc1 [Compound 4] |  |  | 391 ± 35 | 0.000133 | 0.000133 | 0.000133 | 0.000133 | 0.3124 | -0.9699 |  |  | 0.000133 ± 1.2e-05 |  |
| O=C1c2ncccc2CN1CCN1CCOCC1 [Compound 5] |  |  |  | 0.000491 | 0.000491 | 0.000491 | 0.000491 | 0.2518 | -0.7374 |  |  | 0.000491 ± 2e-06 |  |
| O=C1c2ncccc2CN1CCc1c[nH]c2ccccc12 [Compound 6] |  |  | 332 ± 22 | 0.000208 | 0.000208 | 0.000208 | 0.000208 | 0.2402 | -0.7939 |  |  | 0.000208 ± 7e-06 |  |
| COC(=O)N(C)C1c2cccnc2C(=O)N1C (centres unmarked) [Compound 7] |  |  |  | 0.000454 | 0.000454 | 0.000454 | 0.000454 | 0.2694 | -0.728 |  |  | 0.000454 ± 2.7e-05 |  |
| CCC(=O)N(C)C1c2cccnc2C(=O)N1C (centres unmarked) [Compound 8] |  |  | 248 ± 15 |  |  |  |  |  |  |  |  |  |  |
| CCC(CC)C(=O)N(C)C1c2cccnc2C(=O)N1C (centres unmarked) [Compound 9] |  |  |  | 0.000536 | 0.000536 | 0.000536 | 0.000536 | 0.2241 | -0.9347 |  |  | 0.000536 ± 4.7e-05 |  |
| CN(C(=O)c1ccncc1)C1c2cccnc2C(=O)N1C (centres unmarked) [Compound 10] |  |  | 310 ± 28 | 0.000209 | 0.000209 | 0.000209 | 0.000209 | 0.2401 | -0.6357 |  |  | 0.000209 ± 4e-06 |  |
| CN(C(=O)c1ccon1)C1c2cccnc2C(=O)N1C (centres unmarked) [Compound 11] |  |  | 301 ± 16 | 0.000502 | 0.000502 | 0.000502 | 0.000502 | 0.226 | -0.6167 |  |  | 0.000502 ± 5.6e-05 |  |
| CN1C(=O)c2ncccc2C1N(C)C(=O)N1CCOCC1 (centres unmarked) [Compound 12] |  |  | 371 ± 42 | 0.000239 | 0.000239 | 0.000239 | 0.000239 | 0.2363 | -0.5431 |  |  | 0.000239 ± 6e-06 |  |
| C[C@](O)(CO)[C@H](O)COP(=O)(O)O [MEP, 2‐C‐methylerythritol‐D‐erythritol‐4‐phosphate] |  | 0.30 ± 0.0 |  |  |  |  |  |  |  |  |  |  |  |
| B1 |  |  |  |  |  |  |  |  |  |  |  |  | 210 ± 100 |
